This is an account of results in patent publication US12642780B2, “Methods and compositions to treat and prevent viral infections and acute respiratory distress syndrome” (priority 2020, dated 2026).

Format in all cases: cell-based, mouse
In test [1] the test system is BMDM. Nature of the test: Q-PCR quantitation of cytokine mRNAs in LPS-stimulated BMDM. Also noted: Il6 mRNA induction: dose or concentration left out as unconfirmed. As to conditions: BMDM pretreated with SB202190 or SP600125 for 16 h, LPS. As to the method: RNA was extracted using AllPrep DNA/RNA Mini kit, and cDNA was synthesized using SuperScript™ VILO™ cDNA Synthesis Kit. mRNA expression was determined by QPCR in a CFX96 thermal cycler (Biorad) as described (Zhong et al., 2016). Data are presented in arbitrary units and calculated by the 2^(−ΔΔCT) method. Primer sequences were obtained from the NIH qPrimerDepot (http://mouseprimerdepot.nci.nih.gov) and provided by Integrated DNA technologies.

In test [2] the test system is BMDM. Nature of the test: Cytokine secretion by LPS-stimulated BMDM (ELISA). The text has this:
Paired antibodies (capture and detection) and standard recombinant mouse IL-1β (R&D Systems), and TNF and IL-6 (eBioscience) were used to determine mouse cytokine concentrations according to manufacturer's instructions.
A general note: In an ELISA, binding on a coated surface is turned into a signal by an enzyme label.

The test system of test [3] is NLRP3 inflammasome. Nature of the test: NLRP3 inflammasome activation in LPS-primed BMDM. As to conditions: for restoration of Casp1 activation and IL-1β secretion: metformin treated and ATP-stimulated macrophages, DMNQ 20 μM 16 hrs, MitoParaquat 5 μM 1 hr.
Test [4] concerns BMDM. Nature of the test: Mitochondrial function in BMDM (TMRM, MitoSOX, cellular ATP). As to conditions: for mtROS: metformin treated and ATP-stimulated macrophages, DMNQ 20 μM 16 hrs, MitoParaquat 5 μM 1 hr.
In test [5] the test system is mtDNA. Description: mtDNA synthesis and cytosolic Ox-mtDNA in BMDM. The following applies: for restoration of cytoplasmic Ox-mtDNA or mtDNA synthesis: metformin treated macrophages, DMNQ 20 μM 16 hrs, MitoParaquat 5 μM 1 hr. As for the experimental part:
To image mtDNA synthesis, BMDM were stimulated with LPS ([…]) for 4 hrs in the presence of 10 μM EdU. Cells were then washed twice with sterile PBS and fixed in 4% PFA for 15 min followed by permeabilization with 0.02% Triton X-100 for 10 min. EdU staining was performed using a Click-iT EdU Microplate Assay Kit (Thermo Fisher Scientific). In brief, BMDMs were postfixed in EdU fixative for 5 min, and equal volumes of the EdU reaction cocktail, which was prepared immediately before use, were added to each chamber and left overnight. Primary antibody against the mitochondrial marker Atp5b was included in the EdU reaction cocktail. The next day, the BMDM were washed three times with PBS followed by incubation with secondary Alexa antibodies from Life Technologies or Jackson Immuno Research Laboratories. DAPI was used for nuclear counterstaining.
Total DNA was isolated using Allprep DNA/RNA Mini Kit (catalogue 80204, Qiagen) according to manufacturer's instructions. mtDNA was quantified by qPCR using primers specific for the mitochondrial D-loop region, cytochrome c oxidase (COX) or a specific region of mtDNA that is not inserted into nuclear DNA (non-NUMT) (Zhong et al., 2018). Nuclear DNA encoding Teri, 18S ribosomal RNA and B2m was used for normalization.
Cellular fractionation was performed using Mitochondrial Isolation kit (89874, ThermoScientific) according to manufacturer's instructions. Cytosolic mtDNA was analyzed as described (Nakahira et al., 2011). For the measurement of Ox-mtDNA, mtDNA was first purified using Allprep DNA/RNA mini kit (Qiagen) from the cytosolic fraction of BMDM as described above. The 8-OH-dG content of the mtDNA was then quantified using an 8-OHdG quantification kit (ab201734), per manufacturer's instructions.

Take `Oc1ccc(-c2nc(-c3ccncc3)c(-c3ccc(F)cc3)[nH]2)cc1` [SB202190]: the “Il6 mRNA induction” value in test [1] was “blocked”. Moreover, in test [2] (BMDM pretreated with SB202190 or SP600125 for 16 h, LPS), the IL-6 secretion entry was “blocked”.

As to `C[n+]1ccc(-c2cc[n+](CCCCCCCCCC[P+](c3ccccc3)(c3ccccc3)c3ccccc3)cc2)cc1.[I-].[I-].[I-]` [mitoParaquat], the “restoration of Casp1 activation and IL-1β secretion” value in test [3] is on record as “neither one restored”. For the same compound, the mtROS entry in test [4] is “increased”. The “restoration of cytoplasmic Ox-mtDNA or mtDNA synthesis” value in test [5] is given as “neither parameter was restored”.

Turning to `Cc1nc(-c2nc(-c3ccc(OC(F)(F)F)cc3)no2)nn1Cc1cccc(N2CCC(S(C)(=O)=O)CC2)c1` [IACS-010759], in test [2] (BMDM, IACS-010759 20 μM 16 hrs), the IL-6 secretion entry is recorded as “modest inhibition” and the TNF secretion entry was “no effect”. In test [3] (LPS-primed macrophages with NLRP3 activators, IACS-010759 20 μM 16 hrs), the “IL-1β production and Casp1 and GSMDM cleavage” value is “inhibited”. Besides, the “response to nigericin compared with other activators” value in test [3] (LPS-primed macrophages, IACS-010759 20 μM 16 hrs) is “not as strongly inhibited”. Further, the ROS production result in test [4] (BMDM, IACS-010759 20 μM 16 hrs, MitoSOX) was “enhanced”. Further, in test [5] (LPS-primed BMDM, IACS-010759 16 hrs), the mtDNA synthesis result is “inhibited”.

With `COC1=C(OC)C(=O)c2ccccc2C1=O` [DMNQ, 2,3-dimethoxy-1,4-naphtoquinone], the “restoration of Casp1 activation and IL-1β secretion” value in test [3] was “neither one restored”. Also, the mtROS result in test [4] is “increased”. The “restoration of cytoplasmic Ox-mtDNA or mtDNA synthesis” value in test [5] is “neither parameter was restored”.
